Source: patent publication US20040072753A1, “Peptides for use in the treatment of alzheimer's disease” (priority 2000, published 2004)
Each block holds one compound with its values, some of them ahead of it. Where a SMILES comes first, the peptide text is derived from it. Where no end group is shown, it is not given here. [ ]: non-standard residue; d: D form. pS = N[C@@H](COP(=O)(O)O)C(=O)O

Experiments:
[1] = test system: SP2/0-Ag-14 mouse myeloma cells; test: Cytotoxicity of Aβ peptides, trypan blue dye exclusion; type: cell-based; conditions: test peptides 20 μM, 24 hours
Protocol: SP2/0-Ag-14 mouse myeloma cells were maintained in RPMI 1640 medium containing 10% fetal calf serum at 37° C. in a 5% CO2 humidified atmosphere. For cytotoxicity experiments 2×1 05 cells were plated in 24 well dishes in 1 ml PBS containing 0.1% BSA and test peptides (20 μM) for 24 hours. Cell viability was determined by trypan blue dye exclusion with at least 100 cells counted per well (Milton, Biochem. J. 344: 293-296 (1999)).

[2] = target: T1, catalase EC 1.11.1.6 from human erythrocytes (Homo sapiens, UniProt P04040); test: Catalase enzyme activity, inhibition by Aβ peptides; type: biochemical; conditions: test peptides 2 μM
T1 construct: catalase EC 1.11.1.6 from human erythrocytes (Sigma, Dorset, UK) was used; purchased Sigma, Dorset, UK; host or cells: human erythrocytes
T1 sequence (P04040 2-527 limits assumed): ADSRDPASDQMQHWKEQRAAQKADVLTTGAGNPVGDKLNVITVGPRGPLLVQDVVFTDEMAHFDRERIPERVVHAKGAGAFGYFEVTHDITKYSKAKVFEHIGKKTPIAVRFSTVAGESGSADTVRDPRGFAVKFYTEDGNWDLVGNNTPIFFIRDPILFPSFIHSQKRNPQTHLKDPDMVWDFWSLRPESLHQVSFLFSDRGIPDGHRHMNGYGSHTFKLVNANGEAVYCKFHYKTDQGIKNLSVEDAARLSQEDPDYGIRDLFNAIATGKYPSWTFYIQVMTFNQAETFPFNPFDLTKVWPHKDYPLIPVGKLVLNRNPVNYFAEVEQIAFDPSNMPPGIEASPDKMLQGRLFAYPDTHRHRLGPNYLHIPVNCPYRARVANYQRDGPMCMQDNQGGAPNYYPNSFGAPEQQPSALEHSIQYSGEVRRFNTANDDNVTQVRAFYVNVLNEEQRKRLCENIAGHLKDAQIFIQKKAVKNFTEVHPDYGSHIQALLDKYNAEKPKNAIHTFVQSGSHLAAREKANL
Protocol: For catalase activity catalase EC 1.11.1.6 from human erythrocytes (Sigma, Dorset, UK) was used for all incubation experiments. Activity of Catalase (5kU I^−1) incubated with test peptides (2 μM) was determined after incubation in 60 mM sodium-potassium phosphate buffer at 37° C. in a total volume of 100 μl. After incubation catalase activity was determined by mixing 50 μl sample with 50 μl substrate (6.5 μmol H2O2 in phosphate buffer) for 60 secs, adding 100 μl of 32.4 mM ammonium molybdate and measurement of absorbance change at 405 nm. Catalase activity was calculated from a standard curve (0-10OkU I^−1) using purified human catalase of known activity (Milton, Biochem. J. 344: 293-296 (1999)).

biotinylated Aβ 1-42 = biotinylated Aβ 1-42 (Homo sapiens, UniProt P05067); test: Binding of biotinylated Aβ 1-42 to CAβBP or EAβBP coated plates (ELISA, Scatchard); conditions: biotinylated peptide 200 pM
Protocol: After washing to remove unbound material, an alkaline phosphatase polymer-streptavidin conjugate (Sigma, Dorset, UK) was added and incubated at 37° C. for 2 hours. After washing to remove unbound material, p-nitrophenylphosphate substrate was added and absorbance at 405 nm determined.

biotinylated Aβ 25-35 = biotinylated Aβ 25-35 (Homo sapiens, UniProt P05067); test: Binding of biotinylated Aβ 25-35 to CAβBP or EAβBP coated plates (ELISA); conditions: biotinylated peptide 200 pM
Protocol: Biotinylated Aβ1-42, Aβ12-28 and Aβ 25-35 (from SEQ ID NO. 2) were prepared using a LinKit-Biolink kit (ISL, Paignton, UK). ELISA plates were coated with CAβBP (catalase residues 400409) or EAβBD (ERAB residues 99-108) (1 μg ml^−1) in carbonate buffer and unoccupied sites blocked with 5% (w/v) dried milk. Biotinylated peptides (200 pM) were incubated alone, with control peptides or with unlabelled Aβ peptides in PBS (containing 0.1% BSA and 0.05% Tween-20) at 37° C. for 4 hours. After washing to remove unbound material, an alkaline phosphatase polymer-streptavidin conjugate (Sigma, Dorset, UK) was added and incubated at 37° C. for 2 hours. After washing to remove unbound material, p-nitrophenylphosphate substrate was added and absorbance at 405 nm determined. Affinity constants were determined by incubating catalase or CAβBP coated plates with biotinylated peptides (200 pM) plus Aβ peptides over a range of concentrations (0-100 nM) and detection of bound peptides was carried out by ELISA.

[3] = target: T2, recombinant p34-cdc2/cyclin B1 (Homo sapiens, UniProt P06493); test: Phosphorylation of biotinylated Aβ peptides by recombinant p34-cdc2/cyclin B1 (32P incorporation); type: biochemical; conditions: for phosphorylation by cdc2 (incorporation of 32P from γ32P-ATP): 25 μM biotinylated peptide, 10 min at 30° C.
T2 construct: purchased Promega, UK
Source text: (§1) The membrane was washed four times in 2 M NaCl, followed by four times in 2 M NaCl containing 1% (v/v) H3PO4 and finally twice in deionized H2O to remove unbound material.

recombinant human cdc2 = recombinant human cdc2 (Homo sapiens, UniProt P06493); test: Binding of biotinylated Aβ peptides to recombinant human cdc2 coated plates (ELISA); conditions: for binding to human cdc2: biotinylated peptide 200 pM, 37° C. 4 hours
Protocol: After washing to remove unbound material, an alkaline phosphatase polymer-streptavidin conjugate (Sigma, Dorset, UK) was added and incubated at 37° C. for 2 hours.

Human NT-2 neurons [4] = test: Immunoassay of ir-pSAβ and ir-Aβ in extracts of NT-2 neurons exposed to Aβ 17-35 derivatives; type: cell-based; conditions: for levels of immunoreactive Aβ (ir-Aβ) in exposed cells: cell extracts; for ir-pSAβ in extracts of exposed cells: versus control cells
Protocol: To establish whether Aβ is phosphorylated in the Alzheimer's brain, Alzheimer disease brain sections were obtained from Novagen Inc (Madison, Wis., USA. Cat No: 70298-3; Lot No: A301036). Sections were deparaffinised and extracted in DEA buffer supplemented with 0.1 mM sodium vanadate. Extracts from NT-2 neurons were also prepared using the same buffer. Using a polyclonal anti-AB 15-30 antiserum plus Protein-A agarose, the Aβ was immunoprecipitated. The resultant extracts were further purified using a Sep-Pak C18 extraction step. Columns were pre-wetted with methanol and 0.5M acetic acid and the samples were applied in 20% acetonitrile in 0.1% TFA. […] After drying under a stream of nitrogen, samples were resuspended in appropriate buffer. For SDS-PAGE analysis, samples were resuspended in gel loading buffer and run on a 15% acrylamide gel. After immunoblotting onto nitrocellulose membranes, the blots were stained with anti-Aβ, anti-phosphoserine, anti-phosphotyrosine or anti-phosphothreonine antibodies. Bands were visualized with anti-mouse or anti-rabbit IgG-HRP conjugates and TMB membrane substrate. […] ELISA plates were coated with anti-phosphoserine antiserum for pSAβ determination and blocked with 5% dried milk. Samples or synthetic Aβ standards (Aβ 17-35 pS) were applied in PBS containing 0.1% BSA plus 0.05% Tween 20. Monoclonal antibody ALI-01 was added and incubated for 2 hrs. After washing to remove unbound material, ir-pSAβ was detected using an anti-rabbit IgG-HRP conjugate and TMB substrate. A similar assay in which the pS antibody was replaced with a polyclonal anti-Aβ antibody was used to measure Aβ levels.

Human NT-2 neurons [5] = test: Cytotoxicity assay, MTT reduction in human NT-2 neurons; type: cell-based; conditions: for effect on MTT utilisation: 24 h incubation
Protocol: In order to assess the effects of Aβ phosphorylation on the cytotoxic properties of Aβ peptides, a series of Aβ 17-35 derivatives were synthesised. The 17-35 region of Aβ contains the serine residue (serine 26) which is proposed to be phosphorylated by p34-cdc2, and also contains the ERAB binding (17-20) and cytotoxic domains (31-35) thought to play roles in Aβ cytotoxicity. The peptides were tested in a cytotoxicity assay as follows. Human NT-2 (NTera2/D1) precursor cells were propagated in DMEM/F12 medium supplemented with retinoic acid for 5-6 weeks prior to harvesting and replating in the presence of mitotic inhibitors, to generate post-mitotic Human NT-2 neurons. For cytotoxicity experiments, 5×10^3 cells/100 μl, medium were plated in Poly-D-lysine coated 96 well plates. Test peptides (20 μM) were added directly to culture medium prior to incubation for 24 h. Cell viability was determined by measurement of MTT (3-(4,5-dimethylthiazol-2-yl)-2,5-diphenyl tetrazolium bromide) reduction (Shearman, Methods Enzymol. 309: 716-723 (1999)). After incubation with peptides MTT (10 μl: 12 mM stock) was added and cells incubated for a further 4 hours. Cell lysis buffer [100 μl/well; 20% (v/v) SDS, 50% (v/v) N,N-dimethylformamide, pH 4.7] was added and, after repeated pipetting to lyse cells, calorimetric determination of MTT formazan product formation was determined by measuring the absorbance change at 540 nm. Control levels in the absence of peptide were taken as 100%, with the absorbance in the absence of cells taken as 0%.

cdc2/cyclin B1 = target: T3, cdc2/cyclin B1 (Homo sapiens, UniProt P06493+P14635); test: cdc2/cyclin B1 phosphorylation of biotinylated histone H1 substrate peptide; type: biochemical
T3 construct: purchased Promega, UK
Source text: as §1
Since Aβ binds to both the cdc2 and cyclin B1 components of the active enzyme it is possible that Aβ modulates the activity of the kinase.

Sequence of recombinant human cdc2 (P06493 whole entry): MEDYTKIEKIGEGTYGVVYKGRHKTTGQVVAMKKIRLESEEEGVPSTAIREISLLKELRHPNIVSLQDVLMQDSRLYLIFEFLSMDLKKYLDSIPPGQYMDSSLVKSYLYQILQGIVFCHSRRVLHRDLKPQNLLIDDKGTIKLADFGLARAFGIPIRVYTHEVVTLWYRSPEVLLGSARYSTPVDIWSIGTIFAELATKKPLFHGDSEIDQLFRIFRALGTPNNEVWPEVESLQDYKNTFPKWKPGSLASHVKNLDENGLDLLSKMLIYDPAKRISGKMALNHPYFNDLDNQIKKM
T2 sequence (P06493 whole entry): as above
T2 sequence (P14635 whole entry partner): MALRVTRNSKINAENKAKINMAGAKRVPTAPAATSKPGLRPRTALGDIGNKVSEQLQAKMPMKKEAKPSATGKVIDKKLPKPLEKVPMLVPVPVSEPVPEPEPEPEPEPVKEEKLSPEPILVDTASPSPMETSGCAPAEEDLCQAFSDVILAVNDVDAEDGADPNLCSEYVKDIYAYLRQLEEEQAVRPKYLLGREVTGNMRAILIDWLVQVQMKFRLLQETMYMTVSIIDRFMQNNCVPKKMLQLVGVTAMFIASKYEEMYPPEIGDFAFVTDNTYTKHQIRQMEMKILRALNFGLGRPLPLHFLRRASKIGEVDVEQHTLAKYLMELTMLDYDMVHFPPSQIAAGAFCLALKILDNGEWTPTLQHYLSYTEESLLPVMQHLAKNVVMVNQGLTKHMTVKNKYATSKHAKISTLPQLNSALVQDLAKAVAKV
T3 sequence (P06493 whole entry): as the sequence (P06493 whole entry) above
T3 sequence (P14635 whole entry): as the sequence (P14635 whole entry partner) above
Sequence of biotinylated Aβ 1-42 (P05067 672-713 limits assumed): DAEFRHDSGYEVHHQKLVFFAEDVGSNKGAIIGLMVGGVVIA

Compound: CC(C)C[C@H](NC(=O)[C@H](CC(C)C)NC(=O)[C@H](CCCNC(=N)N)NC(=O)[C@H](CCCCN)NC(=O)[C@H](CCCCN)NC(=O)[C@H](Cc1c[nH]cn1)NC(=O)[C@H](CC(N)=O)NC(=O)[C@H](Cc1ccccc1)NC(=O)[C@@H](NC(=O)[C@@H](N)C(C)C)C(C)C)C(=O)O [AβAS(F) 14-23] (H-VVFNHKKRLL-OH)
block of the cytotoxicity of Aβ 1-42 [1]: able to block | block of the cytotoxicity of Aβ fragments containing residues 17-35 [1]: able to block

Compound: CC(C)C[C@H](N)C(=O)N[C@@H](Cc1ccccc1)C(=O)N1CCC[C@H]1C(=O)N[C@@H](CCCNC(=N)N)C(=O)N[C@@H](Cc1ccc(O)cc1)C(=O)N[C@@H](Cc1ccc(O)cc1)C(=O)N1CCC[C@H]1C(=O)N[C@@H](CCC(=O)O)C(=O)N[C@@H](Cc1ccc(O)cc1)C(=O)N[C@@H](Cc1c[nH]cn1)C(=O)O [AβAS(F) 27-36] (H-LFPRYYPEYH-OH)
block of the cytotoxicity of Aβ 1-42 [1]: able to block | block of the cytotoxicity of Aβ fragments containing residues 25-35 [1]: able to block

Compound: C[C@H](NC(=O)CN)C(=O)N1CCC[C@H]1C(=O)N[C@@H](CC(N)=O)C(=O)N[C@@H](Cc1ccc(O)cc1)C(=O)N[C@@H](Cc1ccc(O)cc1)C(=O)N1CCC[C@H]1C(=O)N[C@@H](CC(N)=O)C(=O)N[C@@H](CO)C(=O)N[C@@H](Cc1ccccc1)C(=O)O [CAβBP]
block of the inhibition of catalase enzyme activity by Aβ 1-42 [2]: able to block | block of the inhibition of catalase enzyme activity by Aβ fragments containing residues 31-35 [2]: able to block | block of the cytotoxicity of Aβ 1-42 [1]: able to block | block of the cytotoxicity of Aβ fragments containing residues 31-35 [1]: able to block | binding of biotinylated Aβ 1-42 (biotinylated Aβ 1-42): specifically bound | binding of biotinylated Aβ 25-35 (biotinylated Aβ 25-35): specifically bound

phosphorylation by cdc2 (incorporation of 32P from γ32P-ATP) [3]: incorporated | binding to human cdc2 (recombinant human cdc2): bound
Compound: Aβ 1-42: major form of Amyloid-β protein, residues 1-42

phosphorylation by cdc2 (incorporation of 32P from γ32P-ATP) [3]: phosphorylated | binding to human cdc2 (recombinant human cdc2): binds to
Compound: Aβ 1-43: Amyloid-β 1-43 region, SEQ ID NO. 2

inhibition of phosphorylation of Aβ [3]: inhibited | inhibition of the binding of Aβ to cdc2 (recombinant human cdc2; biotinylated Aβ 1-40 (FIG. 5)): inhibited
Compound: Aβ 17-28: Aβ fragment, residues 17-28 (LVFFAEDVGSNK)

Compound: Aβ 17-35 S26A: Aβ 17-35 in which the serine residue for phosphorylation has been mutated to an alanine residue (LVFFAEDVGANKGAIIGLM; Amyloid-beta protein 42; UniProt P05067 688-706, looked up, variant S26A)
levels of immunoreactive Aβ (ir-Aβ) in exposed cells (Human NT-2 neurons [4]): increased levels | ir-pSAβ in extracts of exposed cells (Human NT-2 neurons [4]): no difference to control cells | effect on MTT utilisation (Human NT-2 neurons [5]): no effect

Compound: Aβ 17-35 pS26: Aβ 17-35 peptide with a phosphorylated serine residue (LVFFAEDVG[pS]NKGAIIGLM; UniProt P05067 688-706, looked up, fragment)
levels of immunoreactive Aβ (ir-Aβ) in exposed cells (Human NT-2 neurons [4]): increased levels | ir-pSAβ in extracts of exposed cells (Human NT-2 neurons [4]): no difference to control cells | potency in MTT reduction compared with the non-phosphorylated peptide (Human NT-2 neurons [5]): significantly more potent | effect on MTT utilisation (Human NT-2 neurons [5]): dose dependent reduction

Compound: Aβ 17-35: Aβ fragment 17-35 containing serine 26, ERAB binding and cytotoxic domains (LVFFAEDVGSNKGAIIGLM)
levels of immunoreactive Aβ (ir-Aβ) in exposed cells (Human NT-2 neurons [4]): increased levels | ir-pSAβ in extracts of exposed cells (Human NT-2 neurons [4]): increased amounts | effect on phosphorylation of the H1 peptide by cdc2/cyclin B1 (cdc2/cyclin B1): increased | effect on MTT utilisation (Human NT-2 neurons [5]): dose dependent reduction

Compound: Aβ 31-35: shortest cytotoxic form of Aβ (IIGLM)
effect on phosphorylation of the H1 peptide by cdc2/cyclin B1 (cdc2/cyclin B1): increased

inhibition of phosphorylation of Aβ [3]: inhibited
Compound: CDKP1: synthetic peptide corresponding to cdc2 residues 119-133 (CHSRRVLHRDLKPQN)

Compound: PKTPKKAKKL (listed as Homo sapiens) [H1 peptide]
Km ([3]; substrate of cdc2/cyclin B1, read-out: Michaelis constant (KM) for the phosphorylation): 2700 nM
